Holding throughout (type): functional, cell-based
One assay concerns MCF7. Put plainly: Cytotoxicity against human MCF7 cells after 24 hrs by MTT assay. The following applies: MCF7, 24 h. On the technique in general: Tetrazolium assays rely on reduction of a dye to a coloured formazan, in cell work by metabolically active cells.
The test system of another assay is M14. Put plainly: Cytotoxicity against human M14 cells after 24 hrs by MTT assay. The following applies: M14, 24 h.
Assay [1] in a line: Cytotoxicity against human SW1116 cells after 24 hrs by MTT assay. The following applies: SW 1116, 24 h.

Converted amounts (≈) assume the structure as drawn.

The results in this text go back to ChEMBL document CHEMBL1921767, “Facile synthesis of new 4-aza-podophyllotoxin analogs via microwave-assisted multi-component reactions and evaluation of their cytotoxic activity” (Bioorg Med Chem Lett, 2011).

Broadly, the IC50 is the concentration needed to halve the response being measured.

With `Cc1nc2c3c(ccc2s1)NC1=C(C(=O)OC1)C3c1ccc(Cl)cc1Cl` (racemic), the half-maximal inhibitory concentration (IC50) with MCF7 is 539 µg/mL (≈ 1340 µM); in the assay on M14, more than 1000 µg/mL.
For `Cc1ccc(C2C3=C(COC3=O)Nc3ccc4sc(C)nc4c32)cc1` (racemic), the concentration for half-maximal inhibition (IC50) stood at 25.7 µg/mL (≈ 73.7 µM) in the assay with MCF7, 122 µg/mL (≈ 350 µM) in assay [1] and 225 µg/mL (≈ 645 µM) in the assay with M14.
On the same counts, the results for `Cc1nc2c3c(ccc2s1)NC1=C(C(=O)OC1)C3c1ccc([N+](=O)[O-])cc1` (racemic) are more than 1000 µg/mL, more than 1000 µg/mL and more than 1000 µg/mL.
Take `Cc1nc2c3c(ccc2s1)NC1=C(C(=O)OC1)C3c1ccccc1` (racemic): the IC50 is more than 1000 µg/mL in the assay with MCF7, 156 µg/mL (≈ 466 µM) in assay [1] and more than 1000 µg/mL with M14.
With `COc1cc(C2C3=C(COC3=O)Nc3ccc4sc(C)nc4c32)cc(OC)c1OC` (racemic), the IC50 in the assay on MCF7 is 686 µg/mL (≈ 1620 µM); in assay [1], 383 µg/mL (≈ 903 µM); in the assay on M14, more than 1000 µg/mL.
As to `Cc1nc2c3c(ccc2s1)NC1=C(C(=O)OC1)C3c1ccc(O)c([N+](=O)[O-])c1` (racemic), the results for the IC50 (with MCF7; in assay [1]; with M14) were 56 µg/mL (≈ 142 µM), 69.4 µg/mL (≈ 176 µM) and 33.9 µg/mL (≈ 85.7 µM), respectively.
For the compound `Cc1nc2c3c(ccc2s1)NC1=C(C(=O)OC1)C3c1cccc([N+](=O)[O-])c1` (racemic), the figures for the IC50 (in the assay with MCF7; in assay [1]; in the assay on M14) were 151 µg/mL (≈ 399 µM), 26 µg/mL (≈ 68.5 µM) and 77.9 µg/mL (≈ 205 µM), respectively.
As for `COc1ccc(C2C3=C(COC3=O)Nc3ccc4sc(C)nc4c32)cc1` (racemic), the IC50 was more than 1000 µg/mL in assay [1] and 508 µg/mL (≈ 1390 µM) in the assay on M14.
As for `Cc1nc2c3c(ccc2s1)NC1=C(C(=O)OC1)C3c1ccc(Br)cc1` (racemic), the concentration for half-maximal inhibition (IC50) in the assay with MCF7 was found to be 748 µg/mL (≈ 1810 µM); in assay [1], 257 µg/mL (≈ 623 µM); in the assay on M14, 167 µg/mL (≈ 405 µM).
